In data set [1] the test system is fatty (fa/fa) Zucker rats. In words: Insulin sensitivity study, oral glucose challenge after one week treatment. It is filed as in vivo, rat. The following applies: 3 mg/kg s.c. twice daily, 7 days. As for the experimental part: Male fatty Zucker rats (Harlan-Olac, Bicester, Oxon, U.K.), which were 15-17 weeks old, were randomly divided into two groups. The animals were house in pairs in a normal 12 hour light:12 hour darkness cycle at 20±2° C. and fed a standard laboratory rat diet (Beekay rat and mouse diet, Bantin & Kingman, Hull, Humberside, U.K.) ad libitum. For the group assigned to receive drug treatment, the rats received BIM-23268C at 3 mg/kg, by subcutaneous injection, twice a day at 10:00 AM and 5:00 PM. The other group, the control group, was treated with a subcutaneous injection of 0.lml/100 g of saline twice a day at 10:00 AM and 5:00 PM. […] On the last day of treatment, at 5:00 PM food was removed, and the rats were fasted overnight.
A method for assessing insulin sensitivity is to administer an oral glucose challenge and monitoring the secretion of insulin and disposal of glucose from the blood stream over a 240 min period (Bergman, R. N., et al., Endocrine Review 6:45-86 (1985)). […] 20 μl blood samples were taken from tail vein (Abdel-Halim, S. M., et al., Diabetes 43:281-288 (1994)) at −60 min, −30 min, 0 min, 30 min, 60 min, 90 min, 120 min, and 240 min.
The 20 μl samples were taken into 380 μl of hemolysis reagents (Sigma, Poole, Dorset, UK) containing 50 mg/liter of digitonin (Cat# D-1407) and 100 mg/liter of Maleimide (M-3766). From this, 100 μl of the hemolysed blood sample was added to 0.9 ml of Tinder reagent (Sigma Enzymatic calorimetric assay for blood glucose, Cat# 315-100, Sigma Chemical Co. Ltd, Poole, Dorset, UK). Blood glucose was determined according to vendor's recommendation at 505 nm.
Insulin was measured by the conventional radioimmunoassay method as described (Dunmore, S., & Beloff-Chain, A., J Endocrinol. 92:15-21 (1982)). Samples were assayed in triplicates with a 1:30000 dilution of an insulin antiserum (from guinea pig)raised in the laboratory (Dunmore, S. J., et al., J. Endocrinol. 137:375-381 (1993), and using ^125I-labelled bovine insulin, iodinated by the chloramine T method (Sambrook, et al., Molecular Cloning- A Laboratory Manual, Ed. 2., Cold Spring Harbor Laboratory Press, 1989). Rat insulin (2000U/0.1 ml, Novo Nordisk Laboratories, Basingstoke, Hants, U.K.) was used as a standard in the assay. The standards and samples were diluted in assay buffer containing NaH2PO4 5.7 g/L, bovine serum albumin (Sigma A4378, Sigma Chemical Co. Ltd., Poole, Dorset, UK) 5.0 g/L, NaN3 1.0 g/L buffered to pH 7.4). Antibody-bound insulin was separated on from free insulin by the addition of a second antibody (donkey anti-guinea pig Ig) coated on cellulose, Sac-Cel (IDS, Boldon, Tyne & Wear, UK). The antibody-bound insulin precipitate was separated by centrifugation. Counts bound were measured on an LKB Rackgamma solid scintillation counter.

Data set [2] has as its target human SSTR-1 (Homo sapiens, UniProt P30872). Description: Somatostatin receptor binding assay, hSSTR-1.
Data set [3] has as its target human SSTR-2 (Homo sapiens, UniProt P30874). In words: Somatostatin receptor binding assay, hSSTR-2.
Data set [4] has as its system fatty (fa/fa) Zucker rats. Particulars: 3 mg/kg s.c. twice daily, 6 days.
Data set [5] has as its target human SSTR-5 (Homo sapiens, UniProt P35346). In words: Somatostatin receptor binding assay, hSSTR-5.
In data set [6] the test system is Obese (fa/fa) Zucker rats. In words: Lipidemia study, plasma glycerol and triglycerides. It is filed as in vivo, rat. As for the experimental part: Obese (fa/fa) Zucker rats were treated as in example 1 above. On the last day of treatment (day 6), food was removed at 5:00 p.m., and the rats were fasted overnight. At 9:00 a.m. the next day, the animals were subjected to a glucose challenge, given as 0.8 gram/kg of glucose orally. Periodic 400 μl of blood samples were taken from the tail vein (Peterson, R. G., ILAR News, 32:16-19 (1990)) 60 min. and 30 min. before and at 30, 60, 90, and 120 min. after the administration of the glucose challenge (0.8 gram/kg orally). Aprotinin (Traysylol, Bayer UK, Hayward's Health, W. Sussex, U.K.) and heparin (Sigma Chemical Co., Poole, Dorset, U.K.) were added to the blood samples to a final concentration of 400 KIU/ml and 100 units/ml, respectively. Plasma fractions were prepared from these samples by centrifugation at 4000×G in a microfuge, for the estimation of triglycerides and glycerol. Samples were then stored at −80° C. until assayed.
Plasma glycerol and triglycerides were determined using the Sigma Enzymatic (Tinder) calorimetric assay kit (Cat #337-B, Sigma Chemical Co., Poole, Dorset, U.K.) and measuring absorbance at 540 nm in a spectrophotometer.

Data set [7] deals with human SSTR-4 (Homo sapiens, UniProt P31391). Description: Somatostatin receptor binding assay, hSSTR-4.
human SSTR-4, sequence (P31391 whole entry): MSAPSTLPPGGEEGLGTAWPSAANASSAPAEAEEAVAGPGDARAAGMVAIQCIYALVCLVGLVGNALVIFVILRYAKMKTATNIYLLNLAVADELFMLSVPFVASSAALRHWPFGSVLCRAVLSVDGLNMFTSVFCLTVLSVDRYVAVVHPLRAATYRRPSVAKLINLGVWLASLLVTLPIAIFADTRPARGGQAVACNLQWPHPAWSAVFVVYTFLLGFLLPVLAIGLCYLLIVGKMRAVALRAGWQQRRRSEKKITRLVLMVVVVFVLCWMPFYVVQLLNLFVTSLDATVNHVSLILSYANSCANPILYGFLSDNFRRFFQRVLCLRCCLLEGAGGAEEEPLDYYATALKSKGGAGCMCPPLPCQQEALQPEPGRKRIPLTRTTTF
For data set [8], the target named is human SSTR-3 (Homo sapiens, UniProt P32745). In words: Somatostatin receptor binding assay, hSSTR-3.
human SSTR-3, sequence (P32745 whole entry): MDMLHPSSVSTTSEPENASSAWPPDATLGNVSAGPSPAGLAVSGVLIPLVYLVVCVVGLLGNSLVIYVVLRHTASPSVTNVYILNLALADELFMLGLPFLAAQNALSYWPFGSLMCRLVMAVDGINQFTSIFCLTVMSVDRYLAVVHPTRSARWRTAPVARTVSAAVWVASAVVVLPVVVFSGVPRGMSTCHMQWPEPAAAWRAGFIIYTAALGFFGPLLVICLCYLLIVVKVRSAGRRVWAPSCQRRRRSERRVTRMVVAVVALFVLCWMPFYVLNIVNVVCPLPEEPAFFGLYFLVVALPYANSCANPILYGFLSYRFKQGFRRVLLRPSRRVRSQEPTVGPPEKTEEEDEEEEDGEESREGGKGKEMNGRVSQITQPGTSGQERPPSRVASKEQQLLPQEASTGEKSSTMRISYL
The mark [9] stands for this setting: 3 mg/kg s.c. twice daily, 6 days, samples 30 and 60 minutes before oral glucose challenge, FIG. 1/2.
Where [10] appears, read: throughout the 2-hour test period after oral glucose challenge.

SMILES strings stand for the structures. Like-named read-outs stand apart in the source and are kept apart here. Positions of bridges follow the written chain, without caps; N, C: chain ends. Non-standard residues stand in square brackets, D forms with d. Residues, ends and D or L forms follow the SMILES beside them.

human SSTR-5, sequence (P35346 whole entry): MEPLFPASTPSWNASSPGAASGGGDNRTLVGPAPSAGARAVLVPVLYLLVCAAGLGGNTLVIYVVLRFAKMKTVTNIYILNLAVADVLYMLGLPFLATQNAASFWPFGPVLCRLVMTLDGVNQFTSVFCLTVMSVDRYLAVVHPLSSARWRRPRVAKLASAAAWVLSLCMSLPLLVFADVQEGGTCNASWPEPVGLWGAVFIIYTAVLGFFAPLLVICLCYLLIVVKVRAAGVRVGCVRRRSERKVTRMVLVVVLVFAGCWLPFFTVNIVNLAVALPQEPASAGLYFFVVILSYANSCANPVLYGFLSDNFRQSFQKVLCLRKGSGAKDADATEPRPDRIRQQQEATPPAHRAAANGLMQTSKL
human SSTR-1, sequence (P30872 whole entry): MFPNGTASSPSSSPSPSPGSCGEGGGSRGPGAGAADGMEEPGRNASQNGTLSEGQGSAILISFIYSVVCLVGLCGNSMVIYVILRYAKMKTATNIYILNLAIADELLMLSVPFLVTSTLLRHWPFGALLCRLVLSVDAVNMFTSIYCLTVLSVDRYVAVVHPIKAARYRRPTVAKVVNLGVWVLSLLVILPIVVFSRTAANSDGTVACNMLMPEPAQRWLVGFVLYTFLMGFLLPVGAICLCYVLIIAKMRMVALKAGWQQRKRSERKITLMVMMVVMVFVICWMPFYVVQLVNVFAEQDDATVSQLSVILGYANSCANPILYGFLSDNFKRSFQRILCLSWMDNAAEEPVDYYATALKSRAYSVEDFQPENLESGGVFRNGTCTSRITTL
human SSTR-2, sequence (P30874 whole entry): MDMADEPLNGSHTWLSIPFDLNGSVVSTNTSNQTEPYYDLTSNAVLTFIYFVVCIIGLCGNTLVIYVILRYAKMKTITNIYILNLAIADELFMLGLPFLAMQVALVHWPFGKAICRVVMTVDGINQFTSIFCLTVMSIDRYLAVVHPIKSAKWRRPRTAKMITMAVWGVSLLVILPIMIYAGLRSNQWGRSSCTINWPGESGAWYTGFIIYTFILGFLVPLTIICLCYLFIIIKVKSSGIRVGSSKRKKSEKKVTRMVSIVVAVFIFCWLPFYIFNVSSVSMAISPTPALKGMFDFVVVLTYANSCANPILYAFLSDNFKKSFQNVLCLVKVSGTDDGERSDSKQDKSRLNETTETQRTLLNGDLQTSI

Turning to `C[C@@H](O)[C@@H]1NC(=O)[C@H](CCCCN)NC(=O)[C@@H](Cc2c[nH]c3ccccc23)NC(=O)[C@H](Cc2ccccc2)NC(=O)[C@H](Cc2ccccc2)NC(=O)[C@@H](N)CSSC[C@@H](C(N)=O)NC(=O)[C@H](Cc2ccccc2)NC1=O` [BIM-23268, H-Cys-Phe-Phe-D-Trp-Lys-Thr-Phe-Cys-NH2] (H-CFF[dW]KTFC-NH2; disulfide 1-8), the insulin-sensitivity entry in data set [1] was “produced an improvement in insulin-sensitivity”. For the same compound, the glucose tolerance entry in data set [1] (oral glucose 0.8 g/kg after overnight fast) is recorded as “did not show an impairment in glucose tolerance”. For the same compound, in data set [1] (oral glucose 0.8 g/kg after overnight fast, vs saline group), the “glucose stimulated insulin secretion to the glucose challenge” value was “significant suppression”. Besides, the “plasma glucose profile versus untreated group” value in data set [1] (oral glucose 0.8 g/kg, up to 240 min) was “not significantly different”. For the same compound, the Ki amounted to 1.23 µM in data set [2] (read-out: Ki hSSTR-1), 0.0151 µM in data set [3] (read-out: Ki hSSTR-2) and 0.00042 µM in data set [5] (read-out: Ki hSSTR-5). For the same compound, the “amount of food consumed over the entire treatment period versus control” value in data set [4] was “no difference”. For the same compound, the “body weight gain versus control” value in data set [4] is reported as “lower”. In data set [4], the “toxic effect, appearance of treated group” value is “appeared healthy”. Besides, the “group mean weight after six days” value in data set [4] (413.6 at start of trial, control 414.09 to 418.89) stood at 413.6. For the same compound, the average food consumption in data set [4] (control 26.0) came out at 25.9 g/rat/day. In addition, the plasma glycerol entry in data set [6] (setting [9]) was “significantly lowered”; in data set [6] (setting [10]), “significantly lower”. Moreover, the plasma triglycerides result in data set [6] (setting [9]) is recorded as “significantly lowered”; in data set [6] (setting [10]), “significantly lower”. Also, in data set [6] (6-day treatment, 3 mg/kg s.c. twice daily), the hypertriglyceridemia result was “effective in reducing hypertriglyceridemia”.

As to `NCCCC[C@@H]1NC(=O)[C@@H](Cc2c[nH]c3ccccc23)NC(=O)[C@H](Cc2ccccc2)NC(=O)[C@H](Cc2ccccc2)NC(=O)[C@@H](N)CSSC[C@@H](C(N)=O)NC(=O)[C@H](Cc2ccccc2)NC(=O)[C@H](CO)NC1=O` [BIM-23284, H-Cys-Phe-Phe-D-Trp-Lys-Ser-Phe-Cys-NH2] (H-CFF[dW]KSFC-NH2; disulfide 1-8), the inhibitory constant (Ki) was 0.0279 µM in data set [2]; 0.0586 µM in data set [7]; 0.0193 µM in data set [3]; 0.00085 µM in data set [5]; 0.0356 µM in data set [8].

For `C[C@@H](O)[C@@H]1NC(=O)[C@H](CCCCN)NC(=O)[C@@H](Cc2c[nH]c3ccccc23)NC(=O)[C@H](Cc2ccc(O)cc2)NC(=O)[C@H](Cc2ccccc2)NC(=O)[C@@H](N)CSSC[C@@H](C(N)=O)NC(=O)[C@H](Cc2ccccc2)NC1=O` [BIM-23295, H-Cys-Phe-Tyr-D-Trp-Lys-Thr-Phe-Cys-NH2] (H-CFY[dW]KTFC-NH2; disulfide 1-8), the Ki in data set [2] came to 0.0869 µM; in data set [7], 0.0034 µM; in data set [3], 0.00619 µM; in data set [5], 0.00034 µM; in data set [8], 0.0097 µM.

For the compound `C[C@@H](O)[C@@H]1NC(=O)[C@H](CCCCN)NC(=O)[C@@H](Cc2c[nH]c3ccccc23)NC(=O)[C@H](Cc2ccc(O)c(I)c2)NC(=O)[C@H](Cc2ccccc2)NC(=O)[C@@H](N)CSSC[C@@H](C(N)=O)NC(=O)[C@H](Cc2ccccc2)NC1=O` [BIM-23313, H-Cys-Phe-Tyr(I)-D-Trp-Lys-Thr-Phe-Cys-NH2], the Ki in data set [2] (membranes of transfected CHO-K1 cells, [125I-Tyr11]somatostatin-14 0.05 nM, read-out: Ki hSSTR-1) came to 0.0151 µM.

The Ki is the equilibrium dissociation constant of an inhibitor or competing ligand from its target.

The record behind these values is US20020042374A1, “METHOD OF TREATING INSULIN INSENSITIVITY AND SYNDROME X” (priority 1997, published 2002).
